Experimental findings from ChEMBL document CHEMBL1909046, “DrugMatrix in vitro pharmacology data” are described below.

For test [1], the target named is cGMP-specific 3',5'-cyclic phosphodiesterase (Homo sapiens, UniProt O76074). Nature of the test: DRUGMATRIX: Phosphodiesterase PDE5 enzyme inhibition (substrate: [3H]cGMP + cGMP). The test is classed as tissue-based. The following applies: platelet; Not Active = under 50% inhibition at 10 µM.
Test [2] addresses Sodium-dependent dopamine transporter (Homo sapiens, UniProt Q01959). The test is described as follows: DRUGMATRIX: Dopamine Transporter radioligand binding (ligand: [125I] RTI-55). The test is classed as cell membranes, CHO-K1, Membrane. The conditions noted are these: Not Active = under 50% inhibition at 10 µM; for Ki: read-out: Ki.
For test [3], the target named is T1, Vasoactive intestinal polypeptide receptor 1 (Homo sapiens, UniProt P32241). Note: in other assays of this panel Not Active means under 50% inhibition at 10 µM.
T1 sequence (P32241 whole entry): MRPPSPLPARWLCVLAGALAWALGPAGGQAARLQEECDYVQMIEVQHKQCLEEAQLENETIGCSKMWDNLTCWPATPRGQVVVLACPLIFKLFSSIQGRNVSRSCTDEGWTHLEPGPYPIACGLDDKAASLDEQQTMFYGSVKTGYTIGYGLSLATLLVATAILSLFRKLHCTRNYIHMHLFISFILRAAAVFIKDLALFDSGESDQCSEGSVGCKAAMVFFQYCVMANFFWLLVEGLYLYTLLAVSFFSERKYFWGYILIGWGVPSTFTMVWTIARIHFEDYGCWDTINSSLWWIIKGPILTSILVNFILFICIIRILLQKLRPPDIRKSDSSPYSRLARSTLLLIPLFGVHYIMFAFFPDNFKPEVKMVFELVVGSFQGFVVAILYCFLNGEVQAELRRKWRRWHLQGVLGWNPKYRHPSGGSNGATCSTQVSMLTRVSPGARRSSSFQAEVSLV
It counts as cell membranes, Membrane. The following applies: ht-29.

The target in test [4] is Epidermal growth factor receptor (Homo sapiens, UniProt P00533). Nature of the test: DRUGMATRIX: Protein Tyrosine Kinase, EGF Receptor enzyme inhibition (substrate: Poly(Glu:Tyr)). It counts as cell-based, Insect cells. The conditions noted are these: Not Active = under 50% inhibition at 10 µM.
A short description of test [5]: DRUGMATRIX: Atrial Natriuretic Factor (ANF) radioligand binding (ligand: [125I] ANF (rat)). It counts as cell membranes, Cavia porcellus, Dunkin-Hartley, Adrenal gland, Membrane. The following applies: Not Active = under 50% inhibition at 10 µM.
Test [6] has as its target T2, Neuropeptide Y receptor type 1 (Homo sapiens, UniProt P25929). Note: in other assays of this panel Not Active means under 50% inhibition at 10 µM.
T2 sequence (P25929 whole entry): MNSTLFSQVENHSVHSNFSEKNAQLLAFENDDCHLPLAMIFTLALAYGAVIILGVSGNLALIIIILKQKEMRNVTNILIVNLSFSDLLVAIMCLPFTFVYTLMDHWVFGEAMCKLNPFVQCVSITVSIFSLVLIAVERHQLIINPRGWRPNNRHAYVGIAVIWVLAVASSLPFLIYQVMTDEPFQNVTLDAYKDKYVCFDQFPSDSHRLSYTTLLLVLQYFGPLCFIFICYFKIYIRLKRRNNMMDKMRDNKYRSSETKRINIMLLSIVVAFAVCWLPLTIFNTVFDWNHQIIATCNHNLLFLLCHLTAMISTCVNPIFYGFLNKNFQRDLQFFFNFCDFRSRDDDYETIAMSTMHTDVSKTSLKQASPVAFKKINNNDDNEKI
The test is classed as cell membranes, Membrane. The conditions noted are these: sk-n-mc.

The next test addresses T3, Glucocorticoid receptor (Homo sapiens, UniProt P04150).
T3 sequence (P04150 whole entry): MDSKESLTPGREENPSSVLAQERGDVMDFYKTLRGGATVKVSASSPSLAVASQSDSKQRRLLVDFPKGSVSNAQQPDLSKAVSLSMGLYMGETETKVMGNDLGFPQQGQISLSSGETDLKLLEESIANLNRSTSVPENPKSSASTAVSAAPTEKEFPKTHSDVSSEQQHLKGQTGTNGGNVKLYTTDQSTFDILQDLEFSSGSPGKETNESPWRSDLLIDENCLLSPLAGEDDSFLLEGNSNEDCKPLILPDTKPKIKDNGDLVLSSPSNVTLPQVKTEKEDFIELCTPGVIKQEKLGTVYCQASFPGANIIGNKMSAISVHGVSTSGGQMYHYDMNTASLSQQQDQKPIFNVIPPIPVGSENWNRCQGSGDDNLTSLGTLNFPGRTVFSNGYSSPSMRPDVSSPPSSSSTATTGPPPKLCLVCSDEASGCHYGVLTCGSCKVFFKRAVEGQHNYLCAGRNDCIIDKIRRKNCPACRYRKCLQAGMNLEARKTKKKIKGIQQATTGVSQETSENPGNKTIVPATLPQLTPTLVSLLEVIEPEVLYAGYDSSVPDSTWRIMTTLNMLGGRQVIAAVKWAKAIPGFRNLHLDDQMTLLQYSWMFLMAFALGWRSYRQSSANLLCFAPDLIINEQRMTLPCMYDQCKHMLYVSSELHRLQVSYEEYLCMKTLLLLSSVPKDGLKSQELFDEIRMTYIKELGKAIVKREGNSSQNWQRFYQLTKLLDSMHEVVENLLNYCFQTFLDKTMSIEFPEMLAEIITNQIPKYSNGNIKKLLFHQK
The conditions noted are these: hela s3.

The target of test [7] is Platelet-activating factor receptor (Homo sapiens, UniProt P25105). It counts as tissue-based. Note: in other assays of this panel Not Active means under 50% inhibition at 10 µM.

*1 amine or outer side, *2 acyl side, *3 side chain or, on linkers, in order; H or OH if unused. Where a SMILES comes first, the peptide text is derived from it. Bridges are numbered along the chain shown (N, C = ends). Roman numbers before positions name the chains, in order. [ ]: non-standard residue; d: D form. Actinocin(1to9) = Cc1c2oc3c(C)ccc(C(=O)[*:2])c3nc-2c(C(=O)[*:1])c(N)c1=O; NMeV = CN[C@H](C(=O)O)C(C)C; Sar = CNCC(=O)O

Chain of Sodium-dependent dopamine transporter (Q01959 whole entry): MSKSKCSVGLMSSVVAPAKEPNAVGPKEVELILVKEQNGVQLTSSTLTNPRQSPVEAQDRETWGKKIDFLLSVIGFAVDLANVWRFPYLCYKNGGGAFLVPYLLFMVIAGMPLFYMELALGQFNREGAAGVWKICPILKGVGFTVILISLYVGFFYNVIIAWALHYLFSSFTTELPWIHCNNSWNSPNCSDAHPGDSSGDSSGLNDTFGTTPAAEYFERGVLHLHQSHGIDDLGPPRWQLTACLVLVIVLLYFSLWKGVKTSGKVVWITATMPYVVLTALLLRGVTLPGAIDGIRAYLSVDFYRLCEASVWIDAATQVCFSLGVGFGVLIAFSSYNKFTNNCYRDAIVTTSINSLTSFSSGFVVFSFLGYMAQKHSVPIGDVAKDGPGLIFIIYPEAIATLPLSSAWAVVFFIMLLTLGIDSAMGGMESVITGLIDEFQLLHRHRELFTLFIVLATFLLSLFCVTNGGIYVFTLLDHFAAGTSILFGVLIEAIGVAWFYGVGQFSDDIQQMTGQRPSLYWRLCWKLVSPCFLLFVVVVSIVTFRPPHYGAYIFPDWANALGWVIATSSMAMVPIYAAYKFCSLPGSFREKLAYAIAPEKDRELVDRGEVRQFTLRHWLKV
Chain of Epidermal growth factor receptor (P00533 whole entry): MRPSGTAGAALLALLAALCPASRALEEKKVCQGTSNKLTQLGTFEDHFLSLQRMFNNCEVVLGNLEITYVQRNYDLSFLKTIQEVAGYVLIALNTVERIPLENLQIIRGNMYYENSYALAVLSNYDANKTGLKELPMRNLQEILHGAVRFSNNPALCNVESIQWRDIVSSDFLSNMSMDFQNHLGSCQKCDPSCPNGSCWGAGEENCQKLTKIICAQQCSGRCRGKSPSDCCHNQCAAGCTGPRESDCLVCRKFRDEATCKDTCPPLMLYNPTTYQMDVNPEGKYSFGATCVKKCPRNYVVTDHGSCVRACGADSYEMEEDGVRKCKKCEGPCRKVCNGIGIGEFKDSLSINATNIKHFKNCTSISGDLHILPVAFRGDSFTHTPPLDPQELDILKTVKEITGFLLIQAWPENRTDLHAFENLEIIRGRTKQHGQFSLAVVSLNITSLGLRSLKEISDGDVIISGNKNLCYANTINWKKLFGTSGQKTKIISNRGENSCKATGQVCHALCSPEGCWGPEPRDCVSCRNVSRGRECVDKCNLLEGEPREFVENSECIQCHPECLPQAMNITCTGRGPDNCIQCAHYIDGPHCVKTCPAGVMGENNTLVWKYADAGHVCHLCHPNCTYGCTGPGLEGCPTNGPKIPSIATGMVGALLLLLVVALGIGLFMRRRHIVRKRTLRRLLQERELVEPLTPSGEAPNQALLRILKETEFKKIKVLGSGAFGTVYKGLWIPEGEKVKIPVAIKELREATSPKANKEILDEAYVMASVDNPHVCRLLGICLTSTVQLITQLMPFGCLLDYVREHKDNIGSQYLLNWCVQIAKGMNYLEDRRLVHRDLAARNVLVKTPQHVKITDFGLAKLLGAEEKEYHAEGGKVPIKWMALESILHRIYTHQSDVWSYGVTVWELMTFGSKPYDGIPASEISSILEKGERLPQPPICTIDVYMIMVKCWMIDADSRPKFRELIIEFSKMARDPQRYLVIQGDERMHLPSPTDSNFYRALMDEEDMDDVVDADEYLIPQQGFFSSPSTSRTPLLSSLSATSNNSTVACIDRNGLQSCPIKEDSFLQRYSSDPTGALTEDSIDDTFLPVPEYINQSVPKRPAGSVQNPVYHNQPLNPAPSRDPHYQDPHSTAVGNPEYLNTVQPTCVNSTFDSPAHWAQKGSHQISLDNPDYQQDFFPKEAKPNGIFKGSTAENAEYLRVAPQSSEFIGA
Chain of Platelet-activating factor receptor (P25105 whole entry): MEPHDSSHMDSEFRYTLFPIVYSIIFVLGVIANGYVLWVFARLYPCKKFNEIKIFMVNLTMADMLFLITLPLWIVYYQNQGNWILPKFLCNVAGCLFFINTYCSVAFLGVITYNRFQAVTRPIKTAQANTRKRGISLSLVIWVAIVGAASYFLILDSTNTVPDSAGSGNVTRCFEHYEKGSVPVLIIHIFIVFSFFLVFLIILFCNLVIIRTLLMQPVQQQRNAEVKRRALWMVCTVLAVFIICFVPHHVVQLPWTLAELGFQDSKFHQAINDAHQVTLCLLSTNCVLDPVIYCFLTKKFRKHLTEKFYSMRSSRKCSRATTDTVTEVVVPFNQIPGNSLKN

In the case of `Cc1ccc(-c2cc(C(F)(F)F)nn2-c2ccc(S(N)(=O)=O)cc2)cc1` [CELECOXIB], the concentration for half-maximal inhibition (IC50) entry in test [1] is “Not Active”; in test [2] (read-out: IC50) it was 2.43 µM; in test [3], “Not Active”; in test [4] (insect cells), “Not Active”; in test [5], “Not Active”; in test [6], “Not Active”. Also, the IC50 entry (on Glucocorticoid receptor; in test [7]) was “Not Active” in each case. The inhibition constant (Ki) in test [2] is 1930 nM; in test [5], “Not Active”.

As to `C[C@H](CCC(=O)O)[C@H]1CC[C@H]2[C@@H]3[C@H](O)C[C@@H]4C[C@H](O)CC[C@]4(C)[C@H]3C[C@H](O)[C@]12C` [CHOLIC ACID], the concentration for half-maximal inhibition (IC50) result in test [1], in test [2] (cho-k1), in test [3], in test [4] (insect cells), in test [5] and in test [6] was “Not Active” in each case. For the same compound, the IC50 result (against Glucocorticoid receptor; in test [7]) was “Not Active” throughout. In test [5], the Ki result was “Not Active”.

Turning to `Cc1cc(C2CCCCC2)n(O)c(=O)c1` [CICLOPIROX], the 50% inhibitory concentration (IC50) result in test [1], in test [2] (cho-k1), in test [3], in test [4] (insect cells), in test [5] and in test [6] was “Not Active” each time. Also, the half-maximal inhibitory concentration (IC50) result (against Glucocorticoid receptor; in test [7]) was “Not Active” throughout. Moreover, the Ki result in test [5] is “Not Active”.

In the case of `CC1=C2C(=CO[C@H](C)[C@H]2C)C(O)=C(C(=O)O)C1=O` [CITRININ], the IC50 result in test [1], in test [2] (cho-k1), in test [3], in test [4] (insect cells), in test [5] and in test [6] was “Not Active” throughout. Further, the half-inhibitory concentration (IC50) entry (at Glucocorticoid receptor; in test [7]) was “Not Active” each time. Also, the Ki entry in test [5] was “Not Active”.

Regarding `CC(C)(Oc1ccc(Cl)cc1)C(=O)O` [CLOFIBRIC ACID], the IC50 result in test [1], in test [2] (cho-k1), in test [3], in test [4] (insect cells), in test [5] and in test [6] was “Not Active” in each case. Further, the half-inhibitory concentration (IC50) result (at Glucocorticoid receptor; in test [7]) was “Not Active” in each case. For the same compound, the Ki entry in test [5] was “Not Active”.

With `Clc1cccc(Cl)c1NC1=NCCN1` [CLONIDINE], the IC50 entry in test [1], in test [2] (cho-k1), in test [3], in test [4] (insect cells), in test [5] and in test [6] was “Not Active” in each case. Moreover, the IC50 entry (on Glucocorticoid receptor; in test [7]) was “Not Active” throughout. Further, the Ki result in test [5] is “Not Active”.

As for `Cc1cc(C(C#N)c2ccc(Cl)cc2)c(Cl)cc1NC(=O)c1cc(I)cc(I)c1O` (centres undefined) [CLOSANTEL], the half-inhibitory concentration (IC50) entry in test [1] is “Not Active”; in test [2] (read-out: IC50), 4.8 µM; in test [3], “Not Active”; in test [4] (read-out: IC50), 564 nM; in test [5], “Not Active”; in test [6] it was “Not Active”. For the same compound, the concentration for half-maximal inhibition (IC50) entry (against Glucocorticoid receptor; in test [7]) was “Not Active” throughout. Besides, the values for the Ki in test [2] and in test [5] were 3800 nM and “Not Active”, respectively.

Consider `Cc1onc(-c2ccccc2Cl)c1C(=O)N[C@@H]1C(=O)N2[C@@H]1SC(C)(C)[C@@H]2C(=O)O` [CLOXACILLIN], for which the IC50 entry in test [1], in test [2] (cho-k1), in test [3], in test [4] (insect cells), in test [5] and in test [6] was “Not Active” in each case. In addition, the IC50 entry (at Glucocorticoid receptor; in test [7]) was “Not Active” in each case. Moreover, the Ki result in test [5] is “Not Active”.

As to `Cc1c2oc3c(C)ccc(C(=O)N[C@@H]4C(=O)N[C@H](C(C)C)C(=O)N5CCC[C@H]5C(=O)N(C)CC(=O)N(C)[C@@H](C(C)C)C(=O)O[C@@H]4C)c3nc-2c(C(=O)N[C@@H]2C(=O)N[C@H](C(C)C)C(=O)N3CCC[C@H]3C(=O)N(C)CC(=O)N(C)[C@@H](C(C)C)C(=O)O[C@@H]2C)c(N)c1=O` [DACTINOMYCIN] (I: T[dV]P[Sar][NMeV] / II: T[dV]P[Sar][NMeV]; ester I:1-I:C, II:1-II:C; linker I:N-II:N via Actinocin(1to9)), the IC50 result in test [1], in test [2] (cho-k1), in test [3], in test [4] (insect cells), in test [5] and in test [6] was “Not Active” each time. The 50% inhibitory concentration (IC50) result (against Glucocorticoid receptor; in test [7]) was “Not Active” each time. Moreover, in test [5], the Ki result is “Not Active”.

With `Cc1c(O)c(=O)ccn1C` [DEFERIPRONE], the concentration for half-maximal inhibition (IC50) result in test [1], in test [2] (cho-k1), in test [3], in test [4] (insect cells), in test [5] and in test [6] was “Not Active” each time. The IC50 entry (at Glucocorticoid receptor; in test [7]) was “Not Active” in each case. Also, the Ki result in test [5] is “Not Active”.

For `C[C@H]1O[C@@H](O[C@H]2[C@@H](O)C[C@H](O[C@H]3[C@@H](O)C[C@H](O[C@H]4CC[C@@]5(C)[C@H](CC[C@@H]6[C@@H]5C[C@@H](O)[C@]5(C)[C@@H](C7=CC(=O)OC7)CC[C@]65O)C4)O[C@@H]3C)O[C@@H]2C)C[C@H](O)[C@@H]1O` [DIGOXIN], the IC50 result in test [1], in test [2] (cho-k1), in test [3], in test [4] (insect cells), in test [5] and in test [6] was “Not Active” throughout. The IC50 result (against Glucocorticoid receptor; in test [7]) was “Not Active” each time. The Ki entry in test [5] is “Not Active”.

As to `CC(C)[C@@]1(NC(=O)[C@@H]2C[C@@H]3c4cccc5[nH]cc(c45)C[C@H]3N(C)C2)O[C@@]2(O)[C@@H]3CCCN3C(=O)[C@H](Cc3ccccc3)N2C1=O.CS(=O)(=O)O` [DIHYDROERGOCRISTINE MESYLATE], the IC50 result in test [1], in test [2] (cho-k1), in test [3], in test [4] (insect cells), in test [5] and in test [6] was “Not Active” throughout. Moreover, the IC50 result (at Glucocorticoid receptor; in test [7]) was “Not Active” each time. The inhibition constant Ki result in test [5] is listed as “Not Active”.

With `O=C(CCCN1CC=C(n2c(=O)[nH]c3ccccc32)CC1)c1ccc(F)cc1` [DROPERIDOL], the IC50 result in test [1], in test [2] (cho-k1), in test [3], in test [4] (insect cells), in test [5] and in test [6] was “Not Active” each time. The IC50 entry (on Glucocorticoid receptor; in test [7]) was “Not Active” each time. Moreover, in test [5], the inhibition constant Ki entry was “Not Active”.

By IC50 is commonly meant the concentration that inhibits the measured activity by half. What is called Ki is the dissociation constant of the complex between target and ligand, obtained from inhibition or displacement.
